Data taken from PubChem BioAssay (NCI).
Values joined by “and” are separate entries in the source; they are usually repeats but may differ in a detail not shown here. Equal entries are not always repeated.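 Grown in 96-well plates, cells were treated for 48 hours with each compound at five concentrations. Insufficient inhibition: endpoint recorded as highest concentration tested. Here, GI50 denotes the concentration required for 50% inhibition of growth. The concentration for full growth arrest is given as TGI.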

Assays:
Assay in all cases: NCI-60 cell line screen, 48 h
SK-MEL-2 melanoma = test system: SK-MEL-2 melanoma
SF-295 CNS = test system: SF-295 CNS
COLO 205 colon = test system: COLO 205 colon
A549 NSCLC = test system: A549 NSCLC
786-0 renal = test system: 786-0 renal
OVCAR-4 ovarian = test system: OVCAR-4 ovarian
KM12 colon = test system: KM12 colon
RXF 393 renal = test system: RXF 393 renal
OVCAR-5 ovarian = test system: OVCAR-5 ovarian
SNB-75 CNS = test system: SNB-75 CNS

SMILES	GI50 (SK-MEL-2 melanoma)	TGI (SK-MEL-2 melanoma)	TGI (SF-295 CNS)	GI50 (COLO 205 colon)	TGI (COLO 205 colon)	TGI (A549 NSCLC)	TGI (786-0 renal)	TGI (OVCAR-4 ovarian)	GI50 (KM12 colon)	TGI (KM12 colon)	TGI (RXF 393 renal)	TGI (OVCAR-5 ovarian)	TGI (SNB-75 CNS)	GI50 (SF-295 CNS)	GI50 (A549 NSCLC)	GI50 (786-0 renal)	GI50 (OVCAR-4 ovarian)	GI50 (RXF 393 renal)	GI50 (OVCAR-5 ovarian)	GI50 (SNB-75 CNS)
COC1C(O)C(C)OC(OC2C(Oc3cccc4c(O)c5c(=O)oc6ccc(C)c7c(=O)oc(c34)c5c67)OC(C)C3O[C@H](c4ccccc4)OC32)C1O (stereo partly specified)	0.937 µM	6.07 µM	3.97 µM	0.258 µM and 0.204 µM	5.59 µM	2.53 µM	7.16 µM	9.75 µM	0.331 µM and 0.312 µM	8.49 µM	5.91 µM	12.7 µM	7.65 µM							
CCN(CC)C(=O)CC1=C(C)/C(=C/c2[nH]c(-c3ccc[nH]3)cc2OC)N=C1C	0.275 µM	0.799 µM	1.73 µM	0.296 µM	10.1 µM	> 100 µM	3.36 µM	> 100 µM	0.374 µM	59.2 µM	22.9 µM	60.9 µM	3.35 µM	0.361 µM	0.639 µM	0.549 µM	0.409 µM	1.1 µM	5.19 µM	0.307 µM
CC(=O)Nc1ccc(-c2c3nc(c(-c4cc5ccccc5[n+](C)c4)c4ccc([nH]4)c(-c4ccc(NC(C)=O)cc4)c4nc(c(-c5cc6ccccc6[n+](C)c5)c5ccc2[nH]5)C=C4)C=C3)cc1	15 µM	> 50 µM	22.5 µM	12.9 µM	26.7 µM	35.4 µM	35.6 µM	30.3 µM	15.1 µM	> 50 µM	14.5 µM	> 50 µM	11.7 µM	6.65 µM	8.6 µM	9.97 µM	3.76 µM	2.05 µM	8.54 µM	2.17 µM
Cc1cc(=O)n(-c2ccccc2)c(=O)o1		> 100 µM	> 100 µM		> 100 µM	> 100 µM	> 100 µM	> 100 µM		> 100 µM	> 100 µM	> 100 µM	> 100 µM							
O=C1c2ccccc2NC(c2cc(Cl)cc(Cl)c2O)N1CCc1ccccn1 (stereo unspecified)		> 100 µM	> 100 µM		> 100 µM	> 100 µM	> 100 µM	98.9 µM		> 100 µM	> 100 µM	> 100 µM	> 100 µM							
COc1ccc(-c2nn(-c3ccc(NC(=O)c4ccc(Cl)c(C(F)(F)F)c4)cc3)cc2-c2ccncc2)cc1Cl	0.345 µM	1.44 µM	0.79 µM	1.27 µM	3.48 µM	> 100 µM	0.449 µM	> 100 µM	0.514 µM	> 100 µM	0.489 µM	> 100 µM	6.42 µM	0.217 µM	1.81 µM	0.187 µM	2.48 µM	0.168 µM	1.33 µM	0.287 µM
COC(=O)CCC(C)[C@H]1CCC2C3C(C[C@H](OC(C)=O)[C@@]21C)[C@@]1(C)CCC2(C[C@H]1C[C@H]3OC(C)=O)OOC1(CCC(C)CC1)OO2 (stereo partly specified)	21.9 µM and 64.9 µM	> 100 µM	> 100 µM	8.13 µM and 48.8 µM	> 100 µM	25.4 µM and > 100 µM	> 100 µM and 95.9 µM	49.5 µM and > 100 µM	4.03 µM and 38.7 µM	> 100 µM	> 100 µM	> 100 µM	> 100 µM	> 100 µM and 47.1 µM	3.89 µM and 13.4 µM	9.1 µM and 27.6 µM	3.75 µM and 18.2 µM			13.7 µM and 40.7 µM
N#CNC(N)=NCCO		> 100 µM	> 100 µM		> 100 µM	> 100 µM	> 100 µM	> 100 µM		> 100 µM	68.3 µM	> 100 µM	> 100 µM							
CC(N=C(N)N)C(=O)O (stereo unspecified)		> 100 µM	> 100 µM		> 100 µM	> 100 µM	> 100 µM	> 100 µM		> 100 µM	> 100 µM	> 100 µM	> 100 µM							
NC(N)=NS(=O)(=O)c1ccc(Nc2c3ccccc3nc3c(C(=O)N4CCN(CCO)CC4)cccc23)cc1		> 100 µM	> 100 µM		> 100 µM	> 100 µM	> 100 µM	> 100 µM		> 100 µM	> 100 µM	> 100 µM	> 100 µM							
NC(=O)c1cc(-c2ccncc2)cc(-c2ccccc2)c1N	> 5.2 µM	> 17 µM	> 25 µM	22.1 µM	> 25 µM	> 25 µM	> 25 µM	> 25 µM	> 25 µM	> 25 µM	24.9 µM	> 25 µM	19.6 µM	> 25 µM	> 23.2 µM	15.9 µM	> 20.6 µM	5.41 µM	> 25 µM	4.76 µM
CCCCN(CCCC)c1ccc(C(=N)c2ccc(N(C)C)cc2)cc1	0.829 µM	2.24 µM	1.34 µM	0.455 µM	1.65 µM	1.97 µM	2.55 µM	1.46 µM	0.516 µM	1.75 µM	2.61 µM	2.86 µM	2.42 µM	0.349 µM	0.7 µM	1.1 µM	0.375 µM	1.25 µM	1.31 µM	1.14 µM
[N-]=[N+]=Nc1ccc(CCN2CCN(c3cccc(C(F)(F)F)c3)CC2)cc1I		> 100 µM	> 100 µM		> 100 µM	> 100 µM	> 100 µM	> 100 µM		> 100 µM	> 100 µM	> 100 µM	> 100 µM							
COc1cc(N2CCN(C(C)C)CC2)ccc1Nc1nc(Nc2cccc3ncccc23)c2cc[nH]c2n1	4.63 µM	11.5 µM	17.9 µM	1.38 µM	5.96 µM	15.6 µM	12.4 µM	> 25 µM	5.56 µM	> 25 µM	9.38 µM	> 25 µM	> 15.4 µM	5.46 µM	2.92 µM	5.27 µM	7.54 µM	3.93 µM	2.5 µM	3.99 µM
CC(C)(C)N/N=C(\Cc1occc(=O)c1O)C(=O)Nc1ccc([N+](=O)[O-])cc1[N+](=O)[O-]		> 100 µM	> 100 µM		> 100 µM	> 100 µM	> 100 µM	> 100 µM		> 100 µM	> 100 µM	> 100 µM	> 100 µM							
O=C1c2ccccc2C(=O)C2C1C1C(=O)c3ccccc3C(=O)C21 (stereo unspecified)		> 100 µM	> 100 µM		> 100 µM	> 100 µM	> 100 µM	> 100 µM		> 100 µM	> 100 µM	> 100 µM	> 100 µM							
Cc1c(C(=O)CC(=O)C(=O)Nc2c(C(C)C)cccc2C(C)C)[n+](=O)c2ccccc2n1[O-]		28.4 µM	29.1 µM		15.2 µM	32.3 µM	22.7 µM	15.5 µM		15.7 µM	38.9 µM	35.6 µM	31.4 µM							
Cc1cc(Cc2cc(C)c(O)c(C)c2)cc(C)c1O	3.65 µM	11 µM	21.7 µM	32.9 µM	> 100 µM	38.2 µM	40.4 µM	> 100 µM	3.93 µM	15.7 µM	36.4 µM	61.9 µM	25.9 µM	3.92 µM	4.32 µM	10.4 µM	29 µM	6.47 µM	17.8 µM	2.59 µM
C=CCn1c(=O)c2cnc(Nc3ccc(N4CCN(C)CC4)cc3)nc2n1-c1ccc2c(n1)[C@@](O)(CC)CC2	0.332 µM	2.44 µM	18.7 µM	0.336 µM	2.57 µM	35.8 µM	12.2 µM	> 39.9 µM	0.391 µM	3.82 µM	0.686 µM	19.5 µM	13.7 µM	0.742 µM	2 µM	0.271 µM	1.89 µM	0.131 µM	1.2 µM	1.07 µM
